Results published in the supplement of paper PMC10307832.

Tests used:
Experiment in all cases: relative viability (nuclei count vs DMSO), 5 days (fraction); higher = more cells survive
IPA-3 + Lapatinib = compound: C1=CC=C2C(=C1)C=CC(=C2SSC3=C(C=CC4=CC=CC=C43)O)O [IPA-3] + CS(=O)(=O)CCNCc1ccc(-c2ccc3ncnc(Nc4ccc(OCc5cccc(F)c5)c(Cl)c4)c3c2)o1 [Lapatinib] (partner 2 µM)
In short: (§1)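 Each reported value is a median over duplicate plates. It expresses relative viability: treated-well nuclei count divided by vehicle-well nuclei count. Lung cancer cell lines in 1536-well plates were dosed by pin tool a day after seeding, alone with one drug or with a fixed anchor-drug dose plus five library-drug doses (not always all listed) in √10 steps, and nuclei were counted after 5 days.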

RAF265 + Decitabine = compound: Cn1c(Nc2ccc(C(F)(F)F)cc2)nc2cc(Oc3ccnc(-c4ncc(C(F)(F)F)[nH]4)c3)ccc21 [RAF265] + Nc1ncn([C@H]2C[C@H](O)[C@@H](CO)O2)c(=O)n1 [Decitabine] (partner 2 µM)
In short: as §1

IPA-3 + Pictilisib = compound: C1=CC=C2C(=C1)C=CC(=C2SSC3=C(C=CC4=CC=CC=C43)O)O [IPA-3] + CS(=O)(=O)N1CCN(Cc2cc3nc(-c4cccc5[nH]ncc45)nc(N4CCOCC4)c3s2)CC1 [Pictilisib] (partner 1 µM)
In short: as §1

RAF265 + Pictilisib = compound: Cn1c(Nc2ccc(C(F)(F)F)cc2)nc2cc(Oc3ccnc(-c4ncc(C(F)(F)F)[nH]4)c3)ccc21 [RAF265] + CS(=O)(=O)N1CCN(Cc2cc3nc(-c4cccc5[nH]ncc45)nc(N4CCOCC4)c3s2)CC1 [Pictilisib] (partner 1 µM)
In short: as §1

Row | Cell Line | relative viability (IPA-3 + Lapatinib; first compound 0.2 µM) | relative viability (IPA-3 + Lapatinib; first compound 0.6325 µM) | relative viability (IPA-3 + Lapatinib; first compound 2 µM) | relative viability (IPA-3 + Lapatinib; first compound 6.325 µM) | relative viability (IPA-3 + Lapatinib; first compound 20 µM) | relative viability (RAF265 + Decitabine; first compound 0.01 µM) | relative viability (RAF265 + Decitabine; first compound 0.03162 µM) | relative viability (RAF265 + Decitabine; first compound 0.1 µM) | relative viability (RAF265 + Decitabine; first compound 0.3162 µM) | relative viability (RAF265 + Decitabine; first compound 1 µM) | relative viability (IPA-3 + Pictilisib; first compound 0.2 µM) | relative viability (IPA-3 + Pictilisib; first compound 0.6325 µM) | relative viability (IPA-3 + Pictilisib; first compound 2 µM) | relative viability (IPA-3 + Pictilisib; first compound 6.325 µM) | relative viability (IPA-3 + Pictilisib; first compound 20 µM) | relative viability (RAF265 + Pictilisib; first compound 0.01 µM) | relative viability (RAF265 + Pictilisib; first compound 0.03162 µM) | relative viability (RAF265 + Pictilisib; first compound 0.1 µM) | relative viability (RAF265 + Pictilisib; first compound 0.3162 µM) | relative viability (RAF265 + Pictilisib; first compound 1 µM)
1 | NCI-H727 | 1.15 | 0.832 | 0.915 | 0.952 | 0.796 | 0.885 | 0.854 | 0.708 | 0.805 | 0.75 | 0.583 | 0.229 | 0.456 | 0.513 | 0.402 | 0.546 | 0.302 | 0.325 | 0.252 | 0.22
2 | NCI-H838 | 1.55 | 0.964 | 0.941 | 1.01 | 1.07 | 0.516 | 0.49 | 0.494 | 0.466 | 0.391 | 0.533 | 0.455 | 0.451 | 0.463 | 0.337 | 0.53 | 0.444 | 0.397 | 0.362 | 0.342
3 | NCI-H1355 | 1.11 | 0.968 | 0.941 | 0.966 | 1.01 | 0.387 | 0.323 | 0.363 | 0.326 | 0.26 | 0.396 | 0.396 | 0.466 | 0.484 | 0.401 | 0.498 | 0.409 | 0.322 | 0.214 | 0.204
4 | NCI-H1395 | 0.994 | 0.86 | 0.903 | 0.999 | 1.29 | 0.753 | 0.664 | 0.66 | 0.707 | 0.549 | 0.607 | 0.61 | 0.441 | 0.651 | 0.668 | 0.632 | 0.574 | 0.568 | 0.449 | 0.507
5 | NCI-H1437 | 1.34 | 0.774 | 0.802 | 0.726 | 0.825 | 0.613 | 0.622 | 0.571 | 0.661 | 0.574 | 0.562 | 0.486 | 0.458 | 0.61 | 0.616 | 0.613 | 0.428 | 0.455 | 0.475 | 0.274
6 | NCI-H1650 | 0.925 | 0.176 | 0.802 | 0.893 | 0.774 | 0.424 | 0.439 | 0.426 | 0.4 | 0.472 | 0.811 | 0.391 | 0.569 | 0.551 | 0.736 | 0.642 | 0.528 | 0.755 | 0.348 | 0.583
7 | NCI-H1651 | 1.18 | – | 0.863 | 0.852 | 0.931 | 0.675 | 0.632 | 0.424 | 0.589 | 0.54 | 0.649 | – | 0.581 | 0.659 | 0.799 | 0.523 | 0.539 | 0.433 | 0.397 | 0.463
8 | NCI-H1666 | 0.77 | 0.673 | 0.674 | 0.786 | 0.66 | 0.851 | 0.915 | 0.71 | 0.722 | 0.694 | 0.541 | 0.521 | 0.445 | 0.403 | 0.541 | 0.583 | 0.453 | 0.329 | 0.426 | 0.249
9 | NCI-H1734 | 1.19 | 0.969 | 1.12 | 0.982 | 0.892 | 0.515 | 0.424 | 0.47 | 0.41 | 0.304 | 0.469 | 0.473 | 0.441 | 0.494 | 0.435 | 0.479 | 0.334 | 0.438 | 0.276 | 0.228
10 | NCI-H1755 | 1.11 | 0.988 | 1.05 | 1.06 | 1.17 | 0.693 | 0.661 | 0.728 | 0.723 | 0.642 | 0.455 | 0.358 | 0.397 | 0.345 | 0.536 | 0.47 | 0.287 | 0.264 | 0.238 | 0.148
11 | NCI-H1792 | 1.07 | 0.888 | 0.94 | 0.894 | 1.01 | 0.462 | 0.506 | 0.472 | 0.324 | 0.204 | 0.258 | 0.285 | 0.25 | 0.272 | 0.325 | 0.277 | 0.279 | 0.223 | 0.166 | 0.0856
12 | NCI-H1793 | 0.834 | 0.539 | 0.909 | 0.776 | 0.702 | 0.554 | 0.463 | 0.438 | 0.332 | 0.277 | 0.318 | 0.352 | 0.314 | 0.367 | 0.418 | 0.296 | 0.267 | 0.447 | 0.216 | 0.179
13 | NCI-H1915 | 1.06 | 0.968 | 0.934 | 0.941 | 1.02 | 0.262 | 0.278 | 0.258 | 0.236 | 0.193 | 0.956 | 0.987 | 0.903 | 0.966 | 0.933 | 0.965 | 0.914 | 0.705 | 0.37 | 0.247
14 | NCI-H1944 | 0.803 | 0.763 | 0.814 | 1.04 | 0.791 | 0.445 | 0.496 | 0.398 | 0.384 | 0.317 | 0.351 | 0.344 | 0.371 | 0.38 | 0.345 | 0.339 | 0.343 | 0.334 | 0.293 | 0.258
15 | NCI-H1975 | 1.18 | 0.888 | 0.964 | 0.889 | 0.927 | 0.403 | 0.364 | 0.308 | 0.263 | 0.254 | 0.342 | 0.284 | 0.316 | 0.321 | 0.259 | 0.287 | 0.213 | 0.162 | 0.155 | 0.103
16 | NCI-H1993 | 0.829 | 0.742 | 0.767 | 0.909 | 0.738 | 0.615 | 0.644 | 0.561 | 0.544 | 0.624 | 0.735 | 0.742 | 0.969 | 0.681 | 1.04 | 0.888 | 0.805 | 0.934 | 0.824 | 0.763
